# Measured values as given in patent US11000537B2, “Composition comprising novel ginsenoside” (AMOREPACIFIC CORPORATION, priority 2018, dated 2021).
# How the values were obtained:
# Type in all cases: cell-based
# SH-SY5Y cells = experiment: cytotoxicity, Cell Counting Kit (CCK)-8; settings: 0.1, 1, 5, 10, 20 and 50 μM, FIG. 17
# Protocol: 10 μl of the CCK-8 reagent was added to the culturing SH-SY5Y cells (Dojindo, Md., USA) with reference to a 96-well plate, and left at 37° C. for 2 hours, and then the absorbance was measured at 450 nm. The cell viability was marked as a percentage (%) of the absolute optical density of each sample relative to the untreated sample. At this time, the concentration of the novel ginsenoside GS #10, which is an example of the present disclosure, contained in the medium in which the cells were cultured was 0.1, 1, 5, 10, 20, and 50 μM, respectively.
# HepG2 cells = experiment: triglyceride accumulation in hepatocytes (Triglyceride Assay Kit)
# Description: In addition, in order to investigate whether inhibition of the expression of fat synthesis-related genes by ginsenoside derived from Ginseng seed may be involved in actual fat synthesis and accumulation, HepG2 cells were used to treat seven ginsenosides (GS #01-GS #06, GS #10; […]) and the control group (fenofibrate, FF) in the same manner as above, and then the Triglyceride Assay Kit (Abcam) was used to measure the amount of triglyceride (TG) accumulated in hepatocytes.
# pancreatic lipase = pancreatic lipase activity inhibition (Pancreatic Lipase Activity Assay Kit)
# Protocol: The hepatocyte cell line HepG2 purchased from the International Center for Biological Resources (ATCC) were placed in Dulbecco's Modified Eagle's Medium (Sigma) to which 10% fetal bovine serum (Hyclone) and 1% penicillin/streptomycin (Sigma) were added, and cultured in a 5% CO2 incubator. As a positive control for the cells, Xenical (Sigma), which are used as pancreatic lipase inhibitors and anti-obesity therapeutic agents, and seven types of ginsenosides (GS #01-GS #06, GS #10; 10 μM each) extracted from Ginseng seed were treated for 1 hour. In addition, Pancreatic Lipase Activity Assay Kit (Abcam) was used to observe the inhibition of each lipase activity.
# [1] = system: HMG-CoA (3-hydroxy-3-methyl-glutaryl-coenzyme A) reductase; experiment: HMG-CoA reductase gene expression in HepG2 (qPCR); settings: 24 hours
# LDL receptor (LDLR) = experiment: LDL receptor gene expression in HepG2 (qPCR); settings: 24 hours
# SREBP1a = SREBP1a gene expression in HepG2 (qPCR); settings: 10 μM, 24 hours, FIG. 30
# Protocol: The hepatocyte cell line HepG2 purchased from the International Center for Biological Resources (ATCC) were placed in Dulbecco's Modified Eagle's Medium (Sigma) to which 10% fetal bovine serum (Hyclone) and 1% penicillin/streptomycin (Sigma) were added, and cultured in a 5% CO2 incubator. As a positive control, Simvastatin (Sigma Aldrich; St. Louis, Mo.), which is known as a lipid lowering agent of the HMG-CoA reductase inhibitor family and reduces cholesterol production in the blood, was used. For the experiment, seven types of ginsenoside (GS #01-GS #06, GS #10; 10 μM each) extracted from Ginseng seeds were treated for 24 hours, and the cells were collected. RNA was extracted using Trizol™ reagent (Thermo Fisher Scientific) and cDNA was synthesized using RevertAid™ 1st strand cDNA synthesis kit (Thermo Fisher Scientific). Bio-Rad's CFX96 real-time quantitative PCR (qPCR) instrument was used to observe the expression of HMG-CoA (3-hydroxy-3-methyl-glutaryl-coenzyme A) reductase, a key gene for cholesterol synthesis. In the same way, LDL (low-density lipoprotein) was absorbed into cells, and the expression of LDL receptor (LDLR), which serves to lower blood cholesterol levels, was observed.
# LDLR is controlled by the SREBP1a gene. […]
# [2] = system: PPARγ (Peroxisome proliferator-activated receptor gamma); experiment: PPARγ adipocyte marker gene expression (qPCR)
# Protocol: (§1) The adipocyte cell 3T3-L1 purchased from the International Center for Biological Resources (ATCC) were placed in Dulbecco's Modified Eagle's Medium (Sigma) to which 10% fetal bovine serum (Hyclone) and 1% penicillin/streptomycin (Sigma) were added, and cultured in a 5% CO2 incubator. In order to differentiate preadipocytes into adipocytes, the cells were filled in a culture plate and cultured. After 48 hours, the cells were replaced with Dulbecco's modified eagle medium (DMEM) to which 10% of fetal bovine serum (Hyclone), 0.5 mM of 3-isobutyl-1-methylxanthine (Sigma), 1 μM of dexamethasone (Sigma), 5 μg/ml of insulin (Sigma), 1% of penicillin/streptomycin (Sigma) were added and further cultured for 48 hours. During 48 hours of culture, seven types of ginsenoside reagents (GS #01-GS #06, GS #10) extracted from Ginseng seeds were treated at 10 μM each to affect adipocyte differentiation. […]
# (§2) After the differentiation of adipocytes in the same manner as above, the expressions of PPARγ (Peroxisome proliferator-activated receptor gamma), aP2 (Adipocyte protein 2) and CD36 were observed as adipocyte marker genes. […] Bio-Rad's CFX96 real-time quantitative PCR (qPCR) instrument was used to quantify the expression levels of each gene. […]
# [3] = system: aP2 (Adipocyte protein 2); experiment: aP2 adipocyte marker gene expression (qPCR)
# Protocol: as §1, §2
# CD36 = CD36 adipocyte marker gene expression (qPCR)
# Protocol: as §1, §2
# 3T1-L1 adipocytes = experiment: glucose uptake (glucose transport) in differentiated adipocytes; settings: 1, 10 μM; compared with ginsenosides Rg1, Rg3, Rb1; FIG. 16
smiles,measurement,setting,value
"CC1(C)C(=O)CC[C@@]2(C)C1[C@@H](O[C@H]1OC(CO)[C@H](O)C(O)C1O[C@H]1OC(CO)[C@H](O)C(O)C1O)C[C@]1(C)C2C[C@@H](O)C2C([C@]3(C)CC[C@H](C(C)(C)O)O3)CC[C@]21C (stereo partly drawn) [GS #10, (20S,24R)-6-O-β-D-glucopyranosyl(1→2)-β-D-glucopyranoside-dammar-3-one-20,24-epoxy-6a,12b,25-triol]",cytotoxicity (cell viability),SH-SY5Y cells,did not exhibit cytotoxicity up to 50 μM
same,inhibitory effect of lipid (triglyceride) accumulation in hepatocytes,"HepG2 cells; 10 μM, HepG2, FIG. 21",most excellent inhibitory effect of lipid accumulation in hepatocytes
same,inhibition of triglyceride accumulated in hepatocytes,"HepG2 cells; 1, 10 μM, compared with Rg1, Rg3, Rb1, FIG. 26",far superior in lipid metabolism inhibitory effect
same,lipase activity inhibitory effect relative to that of the conventional ginsenoside,"pancreatic lipase; 10 μM, 1 hour, FIG. 22",≥ 2 times
same,pancreatic lipase activity inhibitory effect,"pancreatic lipase; 10 μM, 1 hour, FIG. 22",the best
same,pancreatic lipase activity inhibition,"pancreatic lipase; 1, 10 μM, compared with Rg1, Rg3, Rb1, FIG. 27",far superior in lipid metabolism inhibitory effect
same,expression of HMG-CoA reductase,"[1]; 10 μM, HepG2, FIG. 28",most excellent efficacy of inhibiting the expression
same,inhibition of cholesterol synthesis (HMG-CoA reductase expression),"[1]; 1 and 10 μM, compared with Rg1, Rg3, Rb1, FIG. 31",most effective in inhibiting cholesterol synthesis
same,increase of LDLR expression level compared to the control (−),"LDL receptor (LDLR); 10 μM, HepG2, FIG. 29",more than 2 times
same,promotion of intracellular transport (LDLR expression),"LDL receptor (LDLR); 1 and 10 μM, compared with Rg1, Rg3, Rb1, FIG. 32",most effective in inhibiting cholesterol synthesis and promoting intracellular transport
same,expression of SREBP1a,SREBP1a,did not inhibit the expression of SREBP1a but rather tended to increase the expression thereof
same,"adipocyte differentiation inhibition, PPARγ gene expression","[2]; 1 μM and 10 μM, compared with Rg1, Rg3, Rb1, FIG. 39",far superior in adipocyte differentiation inhibition
same,"adipocyte differentiation inhibition, PPARγ gene expression","[2]; 10 μM, FIG. 35",more effective in inhibiting the adipocyte differentiation
same,"adipocyte differentiation inhibition, aP2 gene expression","[3]; 1 μM and 10 μM, compared with Rg1, Rg3, Rb1, FIG. 40",far superior in adipocyte differentiation inhibition
same,"adipocyte differentiation inhibition, aP2 gene expression","[3]; 10 μM, FIG. 36",more effective in inhibiting the adipocyte differentiation
same,"adipocyte differentiation inhibition, CD36 gene expression","CD36; 1 μM and 10 μM, compared with Rg1, Rg3, Rb1, FIG. 41",far superior in adipocyte differentiation inhibition
same,"adipocyte differentiation inhibition, CD36 gene expression","CD36; 10 μM, FIG. 37",more effective in inhibiting the adipocyte differentiation
same,glucose transport ability,3T1-L1 adipocytes,much superior
